Data published in ChEMBL document CHEMBL1649106, “Structures of 1-Deoxy-D-Xylulose-5-Phosphate Reductoisomerase/Lipophilic Phosphonate Complexes” (ACS Med Chem Lett, 2011).

Key:
Plasmodium falciparum = assay: Antimalarial activity against Plasmodium falciparum; type: functional, organism-based
[1] = target: T1, 1-deoxy-D-xylulose 5-phosphate reductoisomerase (Escherichia coli K-12, UniProt P45568); assay: Inhibition of Escherichia coli DXR
T1 sequence (P45568 whole entry): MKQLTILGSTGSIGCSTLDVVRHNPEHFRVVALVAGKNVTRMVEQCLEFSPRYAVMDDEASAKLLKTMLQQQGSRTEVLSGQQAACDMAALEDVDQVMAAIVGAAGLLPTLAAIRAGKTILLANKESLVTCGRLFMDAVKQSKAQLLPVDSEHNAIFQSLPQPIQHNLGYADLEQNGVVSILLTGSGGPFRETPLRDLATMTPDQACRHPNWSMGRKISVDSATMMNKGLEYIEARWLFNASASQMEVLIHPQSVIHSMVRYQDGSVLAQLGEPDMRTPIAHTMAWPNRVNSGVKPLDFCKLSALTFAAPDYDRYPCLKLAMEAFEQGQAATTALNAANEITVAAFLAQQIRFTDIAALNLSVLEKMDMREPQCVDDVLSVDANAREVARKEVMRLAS

[2] = Half life in plasma; type: ADME, cell-free

Row | SMILES | EC50 (Plasmodium falciparum) [nM] | half-life [2] [h] | IC50 [1] [nM]
1 | O=P(O)(O)Cc1cccnc1 |  |  | 10000
2 | O=CN(O)CCCc1ccncc1 |  |  | > 100000
3 | O=CN(O)CCCP(=O)(O)O [FOSMIDOMYCIN] | 1100 | 1 | 
4 | O=P(O)(O)Cc1ccncc1 |  |  | 7100
5 | O=c1ccc(-c2ccccc2)cn1O [1-HYDROXY-5-PHENYLPYRIDIN-2(1H)-ONE] |  |  | 1400
6 | O=CN(O)CCCc1ccc(Cl)c(Cl)c1 |  |  | > 100000
7 | O=P(O)(O)Cc1ccc(Cl)c(Cl)c1 |  |  | > 100000

More lines, main results first:

Row | EC50 (Plasmodium falciparum) [nM] | half-life [2] [h] | SMILES | IC50 [1] [nM]
8 | 250 |  | CC(=O)N(O)CC[C@H](c1ccc(Cl)c(Cl)c1)P(=O)(O)O | 119
9 | 250 |  | COc1ccc([C@@H](CCN(O)C(C)=O)P(=O)(O)O)cc1 | 459
10 | 250 |  | CC(=O)N(O)CC[C@H](c1ccc(Cl)cc1)P(=O)(O)O | 99
11 | 250 |  | CC(=O)N(O)CC[C@H](c1ccccc1)P(=O)(O)O | 
12 | 250 |  | CC(=O)N(O)CC[C@H](c1ccc(C)cc1)P(=O)(O)O | 396
